This passage reports IC50 results from ChEMBL document CHEMBL5512632, “Unlocking the potential of 1,4-naphthoquinones: A comprehensive review of their anticancer properties” (Eur J Med Chem, 2024).

What is called IC50 is the midpoint of a concentration-inhibition curve.

≈ marks a conversion by molar mass, not a printed value.

Experiment [1] concerns MCF7. The experiment can be described thus: Antiproliferative activity against human MCF7 cells assessed as inhibition of cell growth incubated for 72 hrs by MTT assay. The conditions noted are these: MCF7, 72 h. The format is functional, cell-based. Background: Formazan colour is commonly taken as a measure of viable cells.
In experiment [2] the test system is HCT-116. The experiment can be described thus: Antiproliferative activity against human HCT-116 cells assessed as inhibition of cell growth incubated for 72 hrs by MTT assay. The settings on record: HCT-116, 72 h. The format is functional, cell-based.
For a further experiment, the system named is DU-145. The experiment can be described thus: Antiproliferative activity against human DU-145 cells assessed as inhibition of cell growth incubated for 72 hrs by MTT assay. The format is functional, cell-based. The conditions noted are these: DU-145, 72 h.
Another experiment relates to MDA-MB-435. The experiment can be described thus: Antiproliferative activity against human MDA-MB-435 cells assessed as inhibition of cell growth incubated for 72 hrs by MTT assay. The settings on record: MDA-MB-435, 72 h. Format: functional, cell-based.
Another experiment has as its system SF-295. Briefly: Antiproliferative activity against human SF-295 cells assessed as inhibition of cell growth incubated for 72 hrs by MTT assay. Format: functional, cell-based. The conditions noted are these: SF-295, 72 h.
The subject of the next experiment is OVCAR-8. Briefly: Antiproliferative activity against human OVCAR-8 cells assessed as inhibition of cell growth incubated for 72 hrs by MTT assay. Format: functional, cell-based. The conditions noted are these: OVCAR-8, 72 h.
The test system of a further experiment is Jurkat. The experiment can be described thus: Antiproliferative activity against human Jurkat cells assessed as inhibition of cell growth incubated for 72 hrs by MTT assay. The format is functional, cell-based.
In the next experiment the test system is NCI-H460. The experiment can be described thus: Antiproliferative activity against human NCI-H460 cells assessed as inhibition of cell growth incubated for 72 hrs by MTT assay. Format: functional, cell-based. The settings on record: NCI-H460, 72 h.
A further experiment concerns SK-MEL-5. Briefly: Antiproliferative activity against human SK-MEL-5 cells assessed as inhibition of cell growth incubated for 96 hrs by SRB assay. Format: functional, cell-based. The settings on record: SK-MEL-5, 96 h. In general terms: Sulforhodamine B stains cellular protein and so reports cell mass.
The test system of a further experiment is SiHa. The experiment can be described thus: Antiproliferative activity against human SiHa cells. Format: functional, cell-based.
Another experiment has as its system HCT-15. Briefly: Cytotoxicity against human HCT-15 cells incubated for 48 hrs by MTT assay. The format is functional, cell-based. The settings on record: HCT-15, 48 h.
Another experiment has as its system MDA-MB-231. Briefly: Cytotoxicity against human MDA-MB-231 cells incubated for 48 hrs by MTT assay. Format: functional, cell-based. The conditions noted are these: MDA-MB-231, 48 h.
Another experiment deals with Bel-7402. Briefly: Cytotoxicity against human Bel-7402 cells incubated for 48 hrs by MTT assay. The format is functional, cell-based. The conditions noted are these: Bel-7402, 48 h.
Experiment [3] deals with HCT-116. The experiment can be described thus: Cytotoxicity against human HCT-116 cells incubated for 48 hrs by MTT assay. Format: functional, cell-based. The settings on record: HCT-116, 48 h.
Another experiment has as its system DBTRG-05MG. The experiment can be described thus: Antiproliferative activity against human DBTRG-05MG cells assessed as inhibition of cell growth incubated for 72 hrs by cell counting kit method. Format: functional, cell-based. The settings on record: dbtrg-05mg.
The test system of the next experiment is KB. The experiment can be described thus: Antiproliferative activity against human KB cells assessed as inhibition of cell growth incubated for 72 hrs by MTT assay. The format is functional, cell-based.
The test system of experiment [4] is HepG2. The experiment can be described thus: Antiproliferative activity against human HepG2 cells assessed as inhibition of cell growth incubated for 72 hrs by MTT assay. The format is functional, cell-based. The settings on record: HepG2, 72 h.
Experiment [5] concerns AGS. Briefly: Antiproliferative activity against human AGS cells assessed as inhibition of cell growth incubated for 3 days by MTT assay. The format is functional, cell-based. The settings on record: 72 h.
Another experiment deals with SGC-7901. Briefly: Antiproliferative activity against human SGC-7901 cells assessed as inhibition of cell growth incubated for 48 hrs by MTT assay. Format: functional, cell-based. The settings on record: SGC-7901, 48 h.
The test system of experiment [6] is HepG2. Briefly: Antiproliferative activity against human HepG2 cells assessed as inhibition of cell growth incubated for 48 hrs by MTT assay. The conditions noted are these: HepG2, 48 h. Format: functional, cell-based.
Another experiment has as its system NCI-H187. Briefly: Antiproliferative activity against human NCI-H187 cells. Format: functional, cell-based.
Experiment [7] has as its system MCF7. Briefly: Antiproliferative activity against human MCF7 cells. The format is functional, cell-based.
A further experiment concerns HL-60. The experiment can be described thus: Antiproliferative activity against human HL-60 cells assessed as inhibition of cell growth incubated for 72 hrs by MTT reagent based spectral analysis. The settings on record: HL-60, 72 h. Format: functional.
A short description of experiment [8]: Antiproliferative activity against human YCC-16 cells assessed as inhibition of cell growth incubated for 24 hrs by MTT reagent based microplate reader assay. Format: functional. The conditions noted are these: YCC-16, 24 h.
Experiment [9] can be described thus: Antiproliferative activity against human YCC-6 cells assessed as inhibition of cell growth incubated for 24 hrs by MTT reagent based microplate reader assay. Format: functional. The conditions noted are these: YCC-6, 24 h.
The subject of another experiment is NCI-N87. Briefly: Antiproliferative activity against human NCI-N87 cells assessed as inhibition of cell growth incubated for 24 hrs by MTT reagent based microplate reader assay. The format is functional. The conditions noted are these: NCI-N87, 24 h.
The nature of experiment [10]: Antiproliferative activity against human SNU-484 cells assessed as inhibition of cell growth incubated for 24 hrs by MTT reagent based microplate reader assay. The format is functional. The conditions noted are these: SNU-484, 24 h.
Experiment [11] in a line: Antiproliferative activity against human YCC-1 cells assessed as inhibition of cell growth incubated for 24 hrs by MTT reagent based microplate reader assay. Format: functional. The settings on record: YCC-1, 24 h.
A short description of experiment [12]: Antiproliferative activity against human SNU-216 cells assessed as inhibition of cell growth incubated for 24 hrs by MTT reagent based microplate reader assay. Format: functional. The settings on record: SNU-216, 24 h.
The next experiment has as its system MKN-28. Briefly: Antiproliferative activity against human MKN-28 cells assessed as inhibition of cell growth incubated for 24 hrs by MTT reagent based microplate reader assay. The conditions noted are these: MKN-28, 24 h. The format is functional.
Experiment [13] relates to AGS. Briefly: Antiproliferative activity against human AGS cells assessed as inhibition of cell growth incubated for 24 hrs by MTT reagent based microplate reader assay. Format: functional.
Another experiment relates to MKN-45. The experiment can be described thus: Antiproliferative activity against human MKN-45 cells assessed as inhibition of cell growth incubated for 24 hrs by MTT reagent based microplate reader assay. The conditions noted are these: MKN-45, 24 h. The format is functional.
A further experiment concerns HeLa. Briefly: Antiproliferative activity against human HeLa cells assessed as inhibition of cell growth incubated for 48 hrs by MTT reagent based colorimetric assay. The format is functional.
The test system of experiment [14] is HepG2. Briefly: Antiproliferative activity against human HepG2 cells assessed as inhibition of cell growth incubated for 48 hrs by MTT reagent based colorimetric assay. The format is functional. The conditions noted are these: HepG2, 48 h.
In experiment [15] the test system is HT-29. The experiment can be described thus: Antiproliferative activity against human HT-29 cells assessed as inhibition of cell growth incubated for 48 hrs by MTT assay. The format is functional, cell-based. The conditions noted are these: HT-29, 48 h.
The test system of experiment [16] is HT-29. Briefly: Antiproliferative activity against human HT-29 cells assessed as inhibition of cell growth incubated for 72 hrs by MTT assay. The format is functional, cell-based. The conditions noted are these: HT-29, 72 h.
Another experiment deals with MOLT-4. Briefly: Antiproliferative activity against human MOLT-4 cells assessed as inhibition of cell growth incubated for 72 hrs by MTT assay. The format is functional, cell-based. The settings on record: MOLT-4, 72 h.

On to `COc1ccc(N(Cc2cn(S(=O)(=O)c3ccc(C)cc3)nn2)C2=CC(=O)c3ccccc3C2=O)cc1`, for which the 50% inhibitory concentration (IC50) was determined as 0.58 µM in the experiment with MCF7 [1]; 0.46 µM in the experiment on HCT-116 [2]; 0.38 µM in the experiment on DU-145; 0.56 µM in the experiment on MDA-MB-435; 0.42 µM in the experiment with SF-295; 0.85 µM in the experiment with OVCAR-8. In addition, the IC50 was found to be 0.31 µM with Jurkat and 0.38 µM in the experiment on NCI-H460.

Take `C=CC/N=c1\sc2c(n1NC(=O)c1cc3ccc1CCc1ccc(cc1)CC3)C(=O)c1ccccc1C2=O`: the IC50 in the experiment on SK-MEL-5 was 0.81 µM.

In turn, `O=C(Nc1ccc(S(=O)(=O)c2ccc3[nH]c4c(c3c2)C(=O)c2ccccc2C4=O)cc1)c1cc([N+](=O)[O-])cc([N+](=O)[O-])c1` registered an IC50 in the experiment with SiHa of 20 µg/mL (≈ 33.5 µM).

Regarding `C=CC(C)(C)C(OCCCCCCO)c1cc(OC)c2c(c1OC)/C(=N\O)C=C/C2=N\O` (centres undefined), the IC50 with HCT-15 was determined as 30.2 µM; in the experiment with MDA-MB-231, 8.46 µM; with Bel-7402 it was 6.53 µM; in the experiment on HCT-116 [3], 23.5 µM.

Regarding SODIUM ORTHOVANAD, the half-maximal inhibitory concentration (IC50) in the experiment with DBTRG-05MG was 25 µM.

Turning to `O=C1OCC2=C1C(c1ccc(Oc3ccc(F)cc3)cc1)C1=C(N2)C(=O)c2ccccc2C1=O` (centres undefined), the values for the IC50 with MCF7 [1], with KB and in the experiment on HepG2 [4] were 2.12 µM, 0.6 µM and 1.05 µM, respectively.

`Cn1c(=O)c2c3c(c(-c4cccs4)nc2n(C)c1=O)C(=O)c1ccccc1C3=O`: the IC50 in the experiment on AGS [5] stood at 3.3 µM.

Turning to `COc1ccc(C2C3=C(Nc4nc(SC)nc(N)c42)C(=O)c2ccccc2C3=O)cc1Br` (centres undefined), the IC50 in the experiment with SGC-7901 was 4.39 µM; in the experiment on HepG2 [6], 5.91 µM.

Take `O=C(/C=C/C=C/c1ccc2c(c1)OCO2)OC1=CC(=O)c2ccccc2C1=O`: the IC50 is 2.24 µM with NCI-H187 and 3.84 µM in the experiment with MCF7 [7].

Take `CSc1ccc(-c2c(-c3ccc(SC)cc3)n3c4c(c(-c5ccc(SC)cc5)c3c3ccc(SC)cc23)C(=O)c2ccccc2C4=O)cc1`: the IC50 with HL-60 came out at 2.92 µM.

On to `COc1ccc(SC2=CC(=O)c3c(OC)ccc(OC)c3C2=O)cc1`, for which the IC50 in [8] stood at 1.35 µM; in experiment [9] it was 0.42 µM; in the experiment on NCI-N87, 0.73 µM; in experiment [10] it was 0.64 µM; in experiment [11], 0.71 µM; in experiment [12], 1.22 µM. Moreover, the half-inhibitory concentration (IC50) turned out to be 0.56 µM in the experiment on MKN-28, 0.32 µM in the experiment with AGS [13] and 0.63 µM in the experiment with MKN-45.

With `COc1cc(C2C3=C(Nc4cc5c(cc42)OCO5)C(=O)c2ccccc2C3=O)cc(OC)c1OC` (centres undefined), the values for the IC50 in the experiment with HeLa and in the experiment with HepG2 [14] were 26.8 µM and 14.6 µM, respectively.

Consider `O=C(c1cccs1)c1cc2c(s1)C(=O)c1ccccc1C2=O`, for which the IC50 in the experiment with HT-29 [15] worked out at 1.73 µM.

Take `Cc1ccc(Cn2cc(CNC3=CC(=O)c4ccccc4C3=O)nn2)cc1`: the IC50 turned out to be 10.4 µM with MCF7 [1], 6.8 µM in the experiment with HT-29 [16] and 8.4 µM in the experiment with MOLT-4.
